How the values were obtained:
IL-10 = settings: J. Exp Med.; cited from earlier work
[1] = system: Peritoneal macrophages (PM); test: In vitro cytokine synthesis by LPS-stimulated peritoneal macrophages; format: cell-based, mice
Description: (§1) Peritoneal macrophages (PM) and splenic mononuclear cells (SMNC) were isolated from normal mice, were cultured in nutrient medium and stimulated with LPS and/or ConA, respectively in the absence or presence of GIT27. […] GIT27 had no effect on MIF expression in either cell type, on proliferation of SMNC, and on IL-10 and Interferon (IFN) gamma production by SMNC.

[2] = system: splenic mononuclear cells (SMNC); test: In vitro proliferation and cytokine synthesis by ConA-stimulated splenic mononuclear cells; format: cell-based, mice
Description: as §1

[3] = system: Peritoneal macrophages (PM); test: Ex vivo cytokine synthesis of PM isolated from GIT27 treated mice; format: in vivo; settings: mice treated 7 days i.p. 0.5 mg/mouse or p.o. 2.5 mg/mouse
Description: (§2) These experiments were carried out to explore if intraperitoneal (i.p.) or per os (p.o.) treatment of mice with GIT27 could influence the proliferative response of SMNC and the production of IL-1β, IL-10, TNF-α, IFN-γ and MIF from isolated PM and SMNC. PM and SMNC isolated from mice treated in vivo with GIT27 for 7 consecutive days i.p. (0.5 mg/mouse), or p.o. (2.5 mg/mouse), or isolated from control animals that received GIT27 vehicle (Na2HPO4/H2O), or were without any treatment. 24 h after the last GIT27 treatment, PM and SMNC were collected for further in vitro stimulation and analysis.

[4] = system: splenic mononuclear cells (SMNC); test: Ex vivo proliferation and cytokine synthesis of SMNC isolated from GIT27 treated mice; format: in vivo; settings: mice treated 7 days i.p. 0.5 mg/mouse or p.o. 2.5 mg/mouse
Description: as §2

NF-kB = test: LPS-induced NF-kB DNA binding in monocyte-derived human macrophages; format: cell-based
LPS-induced lethality = LPS-induced lethality in vivo; design: species or system mice; settings: for protection from LPS-induced lethality: therapeutic
Description: As expected, most of the control mice either untreated or that received the vehicle of GIT27 succumbed to LPS-challenge within 3 days. […] In contrast, the treatment with GIT27 given either po or ip protect the mice from the lethal effects of LPS in a dose-dependent fashion. When given p.o., GIT27 was effective at the dose of 2.5 mg/mouse and dosed out both at 1.5 and 3 mg/mouse.

CAR-induced pleurisy = test: Carrageenan (CAR) induced pleurisy; format: in vivo, mice; settings: prophylactic treatment
Excerpt: GIT27 powerfully suppresses CAR-induced pleurisy in mice All the mice that were challenged with CAR and left untreated or treated with the vehicle of GIT27 developed an acute pleurisy, with production of turbid exudate, PMNs infiltration, and myeloperoxidase (MPO) activity accumulation in the lung.

type II CIA = test: Type II collagen-induced arthritis (CIA); format: in vivo, mice; settings: therapeutic
Description: To evaluate the therapeutic effect of GIT27 in arthritis, mice developing type II CIA were treated for 10 consecutive days. […] Control mice were treated under the same experimental regime with the vehicle of GIT27.
The vehicle-treated control mice rapidly develop full clinical signs of type II CIA with a progressive increment of the arthritic clinical scores and severe hind paws oedema. This clinical picture was reflected by severe inflammatory arthritis as indicated by the high the progressive increment of the arthritic histological scores determinated by histological evaluation.

[5] = system: oxazolone-induced hypersensitivity; test: Oxazolone-induced dermatitis; format: in vivo, mice
Description: While the first application of oxazolone sensitizes the mice, the second elicits the hypersensitivity reaction. The dermatitis manifestations appear 18 hours after the second epicutaneous exposure to oxazolone, both ear thickness and weight markedly and progressively increase. The in vivo studies to assess the pharmacological activity of GIT27, were planned with two set of experimental. In the first set, the mice were treated during or before the sensitization phase. […] To evaluate the effects of GIT27 on the elicitation phase of oxazolone-induced dermatitis, the treatment with GIT27 was given one hour after the second epicutancous exposure to oxazolone, when start the progression of the immunoinflammatory responses.

MLD-STZ induced diabetes = test: Diabetes induced by multiple low doses of streptozotocin; format: in vivo, CBA/H mice; settings: prophylactic
Excerpt: Both i.p and p.o. treatment with GIT27 suppressed clinical development of diabetes that is induced in CBA/H mice by multiple low doses of streptozotocin. CBA/H mice developed sustained hyperglycaemia over a 2-week period following MLD-STZ injections. As expected, CBA/H control mice treated with the vehicle of GIT27 either i.p. or p.o. develop diabetes with sustained hyperglycaemia developed over a 2-week period following MLD-STZ injections.

DNB-induced colitis = test: DNB-induced colitis; format: in vivo, mice
Description: Within 5 days after challenge with dinitrobenzene sulfonic acid (DNB), mice develop colitis. The disease severity is evaluated based on a macroscopic score. The vehicle-treated control mice and untreated mice developed colitis with a predictable and progressive increase in inflammation and body weight loss. […] The colons of the control mice and of the GIT27 treated mice were removed, sectioned, fixed, and stained with hematoxylin and eosin. […] The tissue myeloperoxidase activity is a well established marker to assess the inflammatory cell (mainly neutrophils) infiltration. […] We counted an average of 8,9±1.2 (means±SD) cells/high power field in the of DNB-induced animals, whereas there were only 3.37±0.8 cells/high-power field in DNB-induced animals pretreated with GIT27 (p<0.0001).

[6] = 10 consecutive days from clinical score ≧1, vs vehicle
[7] = treated during or before the sensitization phase

Cyclosporin A
IL-10 synthesis in vitro (IL-10): down-regulates

O=C(O)CC1CC(c2ccccc2)=NO1 (centres unmarked) [GIT27, 3-phenyl-4,5-dihydro-5-isoxazoleacetic acid]
MIF expression in PM [1]: no effect
production of IL-1β by PM ([1]; LPS stimulated): inhibited
production of IL-10 by PM ([1]; LPS stimulated): inhibited
production of TNF α by PM ([1]; LPS stimulated): markedly inhibited
MIF expression in SMNC [2]: no effect
IL-10 production by SMNC ([2]; ConA stimulated): no effect
Interferon (IFN) gamma production by SMNC ([2]; ConA stimulated): no effect
production of TNF α by SMNC ([2]; ConA stimulated): markedly inhibited
proliferation of SMNC ([2]; ConA stimulated): no effect
MIF expression by PM upon mitogenic stimulation [3]: normal pattern
synthesis of IL-1β by PM [3]: impaired synthesis
synthesis of IL-10 by PM [3]: impaired synthesis
synthesis of TNF α by PM [3]: impaired synthesis
IFN-γ production by SMNC upon stimulation [4]: normal capacity to produce
IL-1β production by SMNC upon stimulation [4]: normal capacity to produce
IL-10 production by SMNC upon stimulation [4]: normal capacity to produce
MIF expression by SMNC [4]: normal expression pattern
TNF-α production by SMNC upon stimulation [4]: normal capacity to produce
proliferation of SMNC [4]: normal capacity to proliferate
DNA binding of NF-kB induced by LPS (NF-kB): powerfully inhibits in a dose-dependent fashion
protection from LPS-induced lethality (LPS-induced lethality; i.p., between 0.25 and 0.5 mg/mouse): dose-dependent protection
LPS-induced lethality (LPS-induced lethality; p.o. and i.p., prophylactic regime (-24 and -1 hour prior to LPS)): significantly reducing
protection from LPS-induced lethality (LPS-induced lethality; p.o., 2.5 mg/mouse): effective
protection from LPS-induced lethality (LPS-induced lethality; p.o., 1.5 and 3 mg/mouse): dosed out
LPS-induced lethality (LPS-induced lethality; therapeutic administration, overall): powerfully counteracts
PMNs infiltration (CAR-induced pleurisy): reduced
myeloperoxidase (MPO) activity accumulation in the lung (CAR-induced pleurisy): reduced
production of exudate (CAR-induced pleurisy): reduced
overall effect on CAR-induced pleurisy (CAR-induced pleurisy; comparable to antibody against mouse TNF-alpha): powerful protective effect
clinical arthritic scores (type II CIA; [6]): lower
histological arthritic scores (type II CIA; [6]): lower
progression of the arthritic disease (type II CIA; 10 consecutive days, potency comparable to dexamethasone): significantly slower progression
ear thickness ([5]; elicitation phase: treated one hour after second exposure to oxazolone): significant decrease
increment of ear thickness [5, 7]: significantly suppressed
increment of ear weight [5, 7]: significantly suppressed
diabetogenic effect of MLD-STZ (hyperglycaemia) (MLD-STZ induced diabetes; i.p.): significantly reduced
development of hyperglycaemia (MLD-STZ induced diabetes; p.o.): significantly reducing
inflammatory cell infiltration (colon myeloperoxidase activity) (DNB-induced colitis; 5 days after induction of colitis, p<0.0001): significant reduction
infiltrating neutrophils in histology samples (DNB-induced colitis; means±SD, DNB-induced animals pretreated, p<0.0001): 3.37±0.8 cells/high-power field
tissue damage (colon histology) (DNB-induced colitis; treated before DNB-induced colitis, vs control mice): significantly reduced
weight loss (DNB-induced colitis; vs control groups): significant reduction
increase in colon weight (DNB-induced colitis; vs controls): significantly lower
progression of inflammatory colitis (macroscopic score) (DNB-induced colitis; vs controls, p<0.001): significantly attenuated
